# In US6947847B2, “Method to design therapeutically important compounds” (Wisconsin Alumni Research Foundation, priority 2002, dated 2005):
# Where two headings read alike, the source gives them in different places.
# How the values were obtained:
# R. chinensis pepsin = target: T1, R. chinensis pepsin (Rhizopus chinensis, UniProt P06026); assay: biochemical
# T1 sequence (P06026 69-393): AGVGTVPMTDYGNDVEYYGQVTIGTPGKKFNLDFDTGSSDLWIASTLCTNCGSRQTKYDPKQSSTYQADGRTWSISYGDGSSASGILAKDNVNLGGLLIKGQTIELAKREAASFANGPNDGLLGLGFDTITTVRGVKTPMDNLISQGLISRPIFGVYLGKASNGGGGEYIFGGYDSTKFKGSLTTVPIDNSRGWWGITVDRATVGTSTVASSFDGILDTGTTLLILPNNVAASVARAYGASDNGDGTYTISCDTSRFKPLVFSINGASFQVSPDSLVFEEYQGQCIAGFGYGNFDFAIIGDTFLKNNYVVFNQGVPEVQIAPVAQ
# Experimental: Inhibition of substrate hydrolysis by porcine pepsin and R. chinensis pepsin was determined using prior art assay conditions. See Flentke et al. (1999) Protein Expression Purif. 16:213 and Peranteau et al. (1995) Anal. Biochem. 227:242.
# porcine pepsin = porcine pepsin (Sus scrofa, UniProt P00791); assay: Inhibition of substrate hydrolysis by porcine pepsin; type: biochemical
# Chain of porcine pepsin (P00791 60-385): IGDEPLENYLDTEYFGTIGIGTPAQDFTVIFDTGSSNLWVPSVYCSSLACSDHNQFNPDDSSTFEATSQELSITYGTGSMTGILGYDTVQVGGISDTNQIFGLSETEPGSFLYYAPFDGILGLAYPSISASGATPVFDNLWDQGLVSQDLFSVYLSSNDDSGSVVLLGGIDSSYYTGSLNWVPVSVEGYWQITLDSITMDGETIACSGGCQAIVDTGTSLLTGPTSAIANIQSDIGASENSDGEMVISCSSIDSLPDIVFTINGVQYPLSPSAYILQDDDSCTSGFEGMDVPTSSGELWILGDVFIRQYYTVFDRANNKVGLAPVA
# human renin = human renin (Homo sapiens, UniProt P00797); details: cited from earlier work
# Chain of human renin (P00797 67-406): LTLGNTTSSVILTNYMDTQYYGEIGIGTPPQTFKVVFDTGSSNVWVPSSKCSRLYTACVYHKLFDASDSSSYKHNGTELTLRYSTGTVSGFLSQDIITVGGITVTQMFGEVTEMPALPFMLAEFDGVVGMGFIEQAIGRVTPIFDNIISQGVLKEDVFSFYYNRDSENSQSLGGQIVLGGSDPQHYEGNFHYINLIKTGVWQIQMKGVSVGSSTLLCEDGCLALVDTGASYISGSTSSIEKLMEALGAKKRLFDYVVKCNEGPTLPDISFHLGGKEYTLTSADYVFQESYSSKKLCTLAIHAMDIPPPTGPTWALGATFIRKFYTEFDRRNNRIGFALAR
smiles,measurement,setting,value
Brc1ccc(CO[C@H]2CNCC[C@@H]2c2ccccc2)cc1 [Compound 12],IC50,"R. chinensis pepsin; R. chinensis pepsin, read-out: IC50",2000 nM
same,IC50,porcine pepsin,2000 nM
COc1ccc(CO[C@H]2CNCCC2c2ccc(Cl)cc2)cc1 (stereo partly drawn) [Compound 4],concentrations at which renin is inhibited (in words),"human renin; human renin, literature",low micromolar
same,IC50,"human renin; read-out: inhibits renin at, renin, literature value",~26000 nM
O=C(COc1ccc([C@H]2CCNC[C@@H]2OCc2ccc(Br)cc2)cc1)c1ccc2ccccc2c1 [Compound 11],IC50,R. chinensis pepsin,200 nM
same,IC50,"porcine pepsin; porcine pepsin, read-out: IC50",200 nM
